Laboratory results reported in US20240100023A1, “Compositions and Methods For Treating Spinal Cord Injuries” (priority 2020, published 2024).

Tests used:
[1] = test system: unanesthetized, freely moving rats; assay: Diaphragm EMG and plethysmography in awake rats after C2Hx; format: in vivo, Rat
Description: Low dose ampakine treatment was evaluated in awake, freely moving subjects to determine whether this treatment would safely and effectively increase diaphragm activity impaired due to acute- or sub-acute cervical SCI. In a placebo-controlled experiment with freely-moving non-anesthetized rats, ventilation and metabolic rate (VCO2) were measured using whole body plethysmography and diaphragm EMG using in-dwelling muscle electrodes. Diaphragm electromyography (EMG) was recorded using chronic in-dwelling electrodes in unanesthetized, freely moving rats. A spinal hemilesion was induced at C2 (C2Hx), and rats were studied at 4- and 14-days post injury during quiet room air breathing and acute respiratory challenge accomplished by inspiring 10% O2, 7% CO2 gas mixture. At 4 and 14 days following C2 spinal hemisection injury (C2Hx), rats were given a single intravenous bolus of CX717 (5 mg/kg, n=8), CX1739 (5 mg/kg, n=8) or vehicle (2-hydroxypropyl-beta-cyclodextrin; HPCD; n=8) (FIG. 22). Hemisectional spinal surgery results in reduced diaphragm activity as measured by EMG and plethysmography (FIG. 23).

[2] = test system: Mouse (CD1); assay: Amphetamine-stimulated locomotion in mice; format: in vivo; conditions: for Minimum Effective Dose, amphetamine-stimulated locomotion: Mouse (CD1), IP; for Dose producing a significant decrease in amphetamine-stimulated locomotion: mice, amphetamine 2 mg/kg i.p.
Description: Effects of exemplary low impact ampakines were also evaluated in mice for the ability to inhibit amphetamine-stimulated locomotor activity. Mice were placed in the locomotor chamber for 20 min to habituate, removed, injected with either vehicle or SCI recovery ampakine (CX717), and 5 min later injected with 2 mg/kg i.p. Amphetamine Mice were returned to the locomotor chamber 10 min later, and their activity measured for a further 15 min. In related studies, adult male CD1 mice or male Sprague-Dawley rats were acclimated in a test chamber for 20 minutes removed and dosed i.p. (mice) or orally (rats) with CX1739, vehicle, or a reference compound. Five (mice) or 10 (rats) were then injected with amphetamine (2 mg/kg, i.p.) or saline vehicle and were returned to the activity test chamber.

[3] = test system: evoked fEPSPs in rat hippocampus; assay: Evoked fEPSPs in rat hippocampus in vivo (perforant path / dentate gyrus); set-up: species or system Rat (Long Evans); conditions: for Minimum Effective Dose, effect on evoked fEPSPs in rat hippocampus: Rat (Long Evans), IP; for Effect on evoked fEPSP / EPSP amplitude: anesthetized rat, intraperitoneal
Description: Further selection and characterization of ampakines to identify SCI recovery drugs useful within the invention involved electrophysiological studies (to measure “electrically evoked field excitatory postsynaptic potentials” (fEPSPs) for test compounds). CX717 and CX1739 were tested for their ability to facilitate synaptic responses in vivo in anesthetized animals following peripheral administration. Stimulating and recording electrodes were inserted into the perforant path and dentate gyrus of the hippocampus, respectively. Electrically evoked field excitatory postsynaptic responses (fEPSPs) were measured before administration of ampakines, and for approximately 2 hours following intraperitoneal administration of ampakines.
Electrically evoked field excitatory postsynaptic potentials (fEPSPs) were determined for the exemplary test ampakines CX717 and CX1739 as described. […] The response magnitude was related to the plasma levels achieved during the study. […] Both ampakines appear to produce a 25% maximum increase in fEPSP amplitude.

[4] = Phase 1 studies in healthy volunteers (safety, pharmacokinetics); format: in vivo, human
[5] = test system: Rat (Lister); assay: 5 Choice serial reaction time task; format: in vivo; conditions: IP
From the text: Another useful animal model for evaluating ampakine activity is the Five Choice Serial Reaction Time Task in Rats. This assay requires rats to provide a single nose poke in response to a light stimulus presented in one of five locations within a 9-hole chamber. With a correct response a reward is delivered that the rat collects from the food magazine at the rear of the chamber. The withdrawal of its head from the food magazine initiates a short inter-trial interval followed by the presentation of the next randomly presented stimulus. An incorrect response results in a time out period (non-reinforcement) followed by the initiation of a new trial. Groups of 12 rats were used in this study, and all rats received all treatments using a randomized sequence. For evaluation using this model, CX1739 was selected as the exemplary low impact ampakine, administered at doses of 3 and 10 mg/kg i.p. 20 min prior to the start of the study.

[6] = 14 days post injury, baseline breathing, 5 mg/kg i.v.

Compound	Increase in tidal volume [1, 6]	Increase of peak inspiratory ipsilateral diaphragm EMG activity [1, 6] [%]	Minimum Effective Dose, amphetamine-stimulated locomotion [2] [mg/kg]	Dose producing a significant decrease in amphetamine-stimulated locomotion [2] [mg/kg]	Minimum Effective Dose, effect on evoked fEPSPs in rat hippocampus [3] [mg/kg]	Effect on evoked fEPSP / EPSP amplitude [3]	Half-life compared with CX516 ([4]; species not stated)	Minimum Effective Dose, 5 choice serial reaction time task [5] [mg/kg]	Increase in tidal volume ([1]; 4-day time point, 5 mg/kg intravenous bolus) [%]	Tidal volume during hypoxia-hypercapnia challenge ([1]; 10% O2, 7% CO2, follows the 4-day results)	Half-life compared with CX516 ([4]; human, in vivo)
O=C(c1ccc2nonc2c1)N1CCOCC1 [CX717, 1-(benzofurazan-5-ylcarbonyl)morpholine]	~20%	~30	18	3	5	long-lasting increase	significantly longer half-lives than CX516	–	–	–	–
CN(C(=O)c1ccc2nonc2c1)C1CCOCC1 [CX1739, N-Methyl-N-tetrahydro-2H-pyran-4-yl-[2,1,3]-benzoxadiazole-5-carboxamide]	no change in tidal volume	~10	30	30	5	substantial increase	–	3	20	larger increase in tidal volume	significantly longer half-lives than CX516
